Measurements: patent US20230172874A1, “USE OF CANNABIDIOL FOR THE TREATMENT OF INSOMNIA ASSOCIATED TO PAIN” (priority 2021, published 2023)
“Also recorded” adds a separate entry of the source.

Legend:
[1] = tested on: rats; details: cited from earlier work
[2] = tested on: rats with SNI; assay: Mechanical allodynia (von Frey test) after spared nerve injury; format: in vivo, male Wistar rats
Method: (§1) Animals. The experiments were performed on male Wistar rats weighing 250 g (six weeks). All animals were housed in standardized animal facilities under a 12 h light/dark cycle (lights on at 7 AM) with ad libitum access to food and water. All surgeries and experimental procedures were performed during the light cycle. Experimental protocols were approved by the Animal Ethics Committee of the local institutional committee for animal use and care (McGill University, Qc, Canada). These protocols follow ethical guidelines for investigation of experimental pain in conscious animals of the IASP, the Canadian Institute of Health Research guidelines for animal care and scientific use.
(§2) Spared nerve injury (SNI). SNI was performed according to the method of Decosterd and Woolf^35. Rats were deeply anaesthetized with isofluorane (5%), anaesthesia was confirmed by the absence of a nociceptive reflex reaction to a paw pinch. The sciatic nerve was exposed at mid-thigh level distal to the trifurcation and freed of connective tissue; the three peripheral branches (sural, common peroneal, and tibial nerves) of the sciatic nerve were exposed without stretching nerve structures. Both tibial and common peroneal nerves were ligated and transected together. Carprofen (5 mg/kg) was administrated subcutaneously pre-surgery as well as three days every 24 hours post-surgery as analgesic. After SNI, each rat was housed in its home cage for 15 days until the neuropathy is developed.
Mechanical allodynia. On day 15 after SNI, mechanical allodynia was assessed via von Frey test^38. Rats were placed in a test chamber, and they were allowed to acclimate for 60 minutes. Tactile allodynia was determined by measuring paw withdrawal thresholds in response to mid-plantar hind paw stimuli with Calibrated von Frey filaments^36. These filaments are of a logarithmically incremental stiffness corresponding to an applied force ranging from 0.4 to 15 g. Every filament was applied during 10 seconds in the hind paw to measure the withdrawal threshold. The 2.0 g force filament was applied first; in the presence of a response, the next smaller filament was applied. In the absence of a response, the next higher filament was applied. After the first change in response, the test continued until six responses were collected. The paw withdrawal threshold was then converted to the cutaneous nociceptive threshold by using the “up-down” method^39. The stimulus intensity (filament stiffness) required to produce a response in 50% of the applications for each animal was defined as 50% withdrawal threshold (expressed in g). The 50% withdrawal threshold was determined according to the following equation: 50% Threshold (g)=(10^ [Xf+kδ])/10,000. Where Xf is the value of the last von Frey filament used (in logarithmic units), k is the correction factor based on the response patterns of a calibration table and the tabulated value based on the pattern of positive and negative responses, and δ indicates the average differences between stimuli in logarithmic units^38,39. In non-lesioned animals (naïve) a value 11.98-15 g was considered normal, while the presence of allodynia was considered when the 50% withdrawal threshold of the limb is less than 4 g. All nerve-ligated rats were verified to be allodynic before the experiments. Rats without allodynia were excluded.

[3] = tested on: healthy rats; details: intracerebroventricular injection 10 μg/5 μL; cited from earlier work
[4] = tested on: neuropathic rats; assay: Sleep fragmentation analysis (Sleep Fragmentation Index); format: in vivo, male Wistar rats; details: NP rats; CBD 20 mg/kg i.p.; vs NP+VEH
Method: Sleep fragmentation analysis. Sleep Fragmentation Index (SFI) is determinant of excessive daytime sleepiness as it is characterized by repetitive short interruptions of sleep by periods of wakefulness. […] In this study, SFI is calculated as the total number of wakefulness episodes in 24 h divided by the total sleep time in hours during 24 h (REM+NREM).

[5] = tested on: naïve animals; details: cited from earlier work
[6] = tested on: neuropathic rats; assay: EEG/EMG recording of wakefulness, NREM and REM sleep in neuropathic rats; format: in vivo, male Wistar rats
Method: as §1, §2
EEG/EMG Implantation. Neuropathic rats (10 days after surgery) and naïve rats were placed in a stereotaxic frame following isoflurane-induced anesthesia (5%). Anaesthesia was confirmed by the absence of a nociceptive reflex reaction to a paw pinch. For EEG monitoring, three stainless-steel epidural electrodes were positioned through 1.5 mm burr holes: one over the parietal cortex on each side, and the third (as a reference) in the right prefrontal cortex. In rats, their respective locations relative to bregma were −2 mm anteroposterior (AP) and −3 mm lateral (L), −7 mm AP and −3 mm L, and −4.5 mm AP and +3 mm L, according to Paxinos and Watson. For EMG monitoring, three flexible stainless-steel wire electrodes, silicon insulation removed at the terminal 3-4 mm, were implanted into the neck muscles (two bilaterally and one in the middle). Wires were fused with the electrodes and the connectors were fixed to the skull with dental acrylic (Coltene/Whaledent). Carprofen (10mg/kg) was administrated subcutaneously pre-surgery as well as three days every 24 hours post-surgically as analgesic. Each rat was single-caged post-surgery and allowed to recover for the next 5 days^13. 24 hours after surgery, the rats were placed in the recording chamber and connected to a flexible 6-flat wire (3M Scotchflex™) in a freely moving manner for several hours during the subsequent 5 days. No recordings were performed, but tolerance to the cable and sleep behavior were observed. All rats from a home cage were also grouped for one hour each day for socialization to circumvent anxious-depressive-like behavior induced by social isolation^13.
Study design for EEG and EMG assessment. […] […] In another cohort of rats rimonabant (1 mg/kg) was also injected i.p. at 6 A.M. in neuropathic rats.
EEG and EMG recording. Six days after surgery (16 days post-SNI), mechanical allodynia was assessed via von Frey test, and EEG/EMG was recorded for a period of 6 h (from 6 AM to 12 PM). The treatments (described below) were performed at 6:00 A.M., right after the recording had started. […] Consecutive 10 s epochs were subjected to a fast Fourier transform (FFT), and EEG power spectra density was computed in the frequency range of 0-64 Hz^13.
Analysis of EEG and EMG data. The three classical vigilance states as described in the rat were discriminated on the basis of the cortical EEG and neck EMG activities. […]

[7] = naïve animals, acute systemic 20 mg/kg
[8] = 6 h EEG/EMG, i.p., CBD 20 mg/kg, WAY 100635 2 mg/kg
[9] = NP rats, 6 h EEG/EMG, i.p., CBD 20 mg/kg, rimonabant 1 mg/kg

## C=C(C)[C@@H]1CCC(C)=C[C@H]1c1c(O)cc(CCCCC)cc1O [CBD, 2-[(1R,6R)-3-methyl-6-prop-1-en-2-ylcyclohex-2-en-1-yl]-5-pentylbenzene-1,3-diol]
[1]; CBD dose of 40 mg/kg
  increase in SWS duration: not statistically significant
[1]; CBD doses of 10 and 40 mg/kg
  total percentage of sleep: significantly increased
[2]; 10 mg/kg vs 20 mg/kg
  AUC of the antiallodynic effect: not statistically different
[2]; 20 mg/kg group vs CBD 5 mg/kg (p<0.001) and vs vehicle (p<0.001)
  AUC of the antiallodynic effect: significantly higher
[2]; SNI rats, 5 mg/kg i.p.
  antiallodynic effect: did not show any antiallodynic effect
[2]; SNI rats, 10 mg/kg i.p., between 2 h and 4.5 h (p<0.05)
  reversal of mechanical allodynia: able to reverse mechanical allodynia
[2]; SNI rats, 20 mg/kg i.p., between 1 h and 5 h (p<0.05)
  reversal of mechanical allodynia: able to reverse mechanical allodynia
[2]; SNI rats, CBD 5, 10 and 20 mg/kg intraperitoneally, 0.5-7.5 hours, vs vehicle
  paw withdrawal threshold / mechanical allodynia, dose dependence: increasing the paw withdrawal threshold in a dose-dependent manner; also recorded: reduces mechanical allodynia in a dose-dependent manner; also recorded: reduces neuropathic pain
[2]; SNI rats, CBD i.p.
  duration of antiallodynic effects post-administration: up to 4 hours
[3]
  REM sleep: decrease in REM sleep
  wakefulness: increase in wakefulness
[4]
  sleep fragmentation (sleep fragmentation index, SFI): decrease of the sleep fragment index (SFI) to normal levels; also recorded: attenuates the sleep fragmentation
[5]; [7]
  sleep duration and sleep parameters: no significant effect
  slow-wave sleep (SWS) latency: reduced slow-wave sleep (SWS) latency
[5]; single doses of 40 mg/kg
  REM sleep: without affecting REM sleep
  SWS: increased SWS
  SWS latency: decreased SWS latency
[6]; [8]
  total NREM sleep, relative to NP rats treated with vehicle: able to reverse NREM sleep impairments; also recorded: restored NREM sleep
  total time of wakefulness, relative to NP rats treated with vehicle: decrease in the amount of time spent in wakefulness; also recorded: decreased wakefulness
[6]; 6 h EEG/EMG, i.p., CBD 20 mg/kg, WAY 100635 2 mg/kg, rimonabant 1 mg/kg
  REM sleep (total time), relative to NP rats treated with vehicle: restored the normal REM sleep
[6]; NP rats, 6 h EEG/EMG, CBD 20 mg/kg i.p.
  NREM sleep, relative to naïve animals treated with vehicle: no difference was detected
[6]; [9]
  REM sleep, relative to naïve animals treated with vehicle: no difference was detected
  wakefulness, relative to naïve animals treated with vehicle: no difference was detected
[6]; NP rats, i.p., CBD 20 mg/kg, rimonabant 1 mg/kg
  reversal of sleep perturbations induced by neuropathic pain (sleep-wake cycle): Reverses the Sleep Perturbations; also recorded: restored the normal sleep-wake cycle; also recorded: restores the impaired sleep in a dose-dependent manner
